Measured values from ChEMBL document CHEMBL3739353, “Arthroamide, a Cyclic Depsipeptide with Quorum Sensing Inhibitory Activity from Arthrobacter sp” (J Nat Prod, 2015).
Active and inactive are the calls of the source. No cut-off for these calls is given here.

Legend:
[1] = target: T1, Accessory gene regulator protein A (Staphylococcus aureus) (UniProt P0A0I7); assay: Inhibition of agr-mediated quorum sensing in Staphylococcus aureus at 5 to 10 uM after 5 hrs by luminescence analysis
T1 sequence (whole entry): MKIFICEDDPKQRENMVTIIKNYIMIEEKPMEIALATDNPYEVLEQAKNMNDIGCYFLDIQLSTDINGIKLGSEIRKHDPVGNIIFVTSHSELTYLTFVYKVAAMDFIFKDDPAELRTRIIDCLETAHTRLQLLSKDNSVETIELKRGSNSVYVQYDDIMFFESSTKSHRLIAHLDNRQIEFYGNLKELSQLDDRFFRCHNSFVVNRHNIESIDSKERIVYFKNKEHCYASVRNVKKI

Candida albicans = assay: Antimicrobial activity against Candida albicans at 100 ug/ml; assay type: functional, organism-based
Micrococcus luteus = assay: Antimicrobial activity against Micrococcus luteus at 100 ug/ml; assay type: functional, organism-based
Escherichia coli = assay: Antimicrobial activity against Escherichia coli at 100 ug/ml; assay type: functional, organism-based

Row | Structure (SMILES) | inhibition [1] [%] | Activity (Candida albicans) | Activity (Micrococcus luteus) | Activity (Escherichia coli)
1 | CC(C)[C@@H]1NC(=O)C[C@H](/C=C/c2ccccc2)OC(=O)[C@H](C(C)C)NC(=O)[C@H](C(C)C)NC(=O)[C@@H](C)NC1=O | 10 | inactive | inactive | inactive
2 | CC[C@H](C)[C@@H]1NC(=O)[C@@H](C)NC(=O)[C@H](C(C)C)NC(=O)C[C@H](/C=C/c2ccccc2)OC(=O)[C@H](C(C)C)NC1=O | 10 | – | – | –
